Test results as given in patent publication US12552775B2, “Compounds and uses thereof” (Foghorn Therapeutics Inc., priority 2020, dated 2026).

Key:
HiBit-BRM fusion protein = target: T1, HiBit-BRM fusion protein (Homo sapiens, UniProt P51531); assay: HiBiT-BRM cell-based degradation assay (Nano-Glo HiBiT Lytic Detection, 24 h); details: stable HeLa cell line expressing HiBiT-BRM, top dose 30 μM
T1 construct: expressed in transfected cells
Experimental: (§1) Procedure: A stable HeLa cell line expressing HiBiT-BRM was generated. On day 0, 5000 cells were seeded in 40 μL of media into each well of 384-well cell culture plates. On day 1, cells were treated with 120 nL DMSO or 120 nL of 3-fold serially DMSO-diluted compounds (10 points in duplicate with 30 μM as final top dose). Subsequently plates were incubated for 24 h in a standard tissue culture incubator and equilibrated at room temperature for 15 minutes. Nano-Glo HiBiT Lytic Detection System (Promega N3050) reagent was freshly prepared and 20 ul was added to each well. Upon addition of this LgBit-containing reagent, the HiBiT and LgBiT proteins associate to form the luminescent NanoBiT luciferase. The plates were shaken for 10 minutes at room temperature and the bioluminescence read using an EnVision plate reader (PerkinElmer).
(§2) The degradation % was calculated using the following formula: % degradation=100%−100%×(Lumsample−LumLC)/(LumHC−LumLC). DMSO treated cells are employed as High Control (HC) and 2 μM of a known BRM/BRG1 degrader standard treated cells are employed as Low Control (LC).

[1] = target: T2, HiBit-BRG1 fusion protein (Homo sapiens, UniProt P51532); assay: HiBiT-BRG1 cell-based degradation assay (Nano-Glo HiBiT Lytic Detection, 24 h); details: stable HeLa cell line expressing HiBit-BRG1 and LgBit, top dose 30 μM, read-out: BRG1 HiBit Degradation Maximum (%)
T2 construct: expressed in transfected cells
Experimental: as §1
For measurement of BRG1 degradation, a stable HeLa cell line expressing HiBit-BRG1 and LgBit was generated. The same protocol as above was then followed.
as §2

T1 sequence (P51531 whole entry, the tested form may be a part): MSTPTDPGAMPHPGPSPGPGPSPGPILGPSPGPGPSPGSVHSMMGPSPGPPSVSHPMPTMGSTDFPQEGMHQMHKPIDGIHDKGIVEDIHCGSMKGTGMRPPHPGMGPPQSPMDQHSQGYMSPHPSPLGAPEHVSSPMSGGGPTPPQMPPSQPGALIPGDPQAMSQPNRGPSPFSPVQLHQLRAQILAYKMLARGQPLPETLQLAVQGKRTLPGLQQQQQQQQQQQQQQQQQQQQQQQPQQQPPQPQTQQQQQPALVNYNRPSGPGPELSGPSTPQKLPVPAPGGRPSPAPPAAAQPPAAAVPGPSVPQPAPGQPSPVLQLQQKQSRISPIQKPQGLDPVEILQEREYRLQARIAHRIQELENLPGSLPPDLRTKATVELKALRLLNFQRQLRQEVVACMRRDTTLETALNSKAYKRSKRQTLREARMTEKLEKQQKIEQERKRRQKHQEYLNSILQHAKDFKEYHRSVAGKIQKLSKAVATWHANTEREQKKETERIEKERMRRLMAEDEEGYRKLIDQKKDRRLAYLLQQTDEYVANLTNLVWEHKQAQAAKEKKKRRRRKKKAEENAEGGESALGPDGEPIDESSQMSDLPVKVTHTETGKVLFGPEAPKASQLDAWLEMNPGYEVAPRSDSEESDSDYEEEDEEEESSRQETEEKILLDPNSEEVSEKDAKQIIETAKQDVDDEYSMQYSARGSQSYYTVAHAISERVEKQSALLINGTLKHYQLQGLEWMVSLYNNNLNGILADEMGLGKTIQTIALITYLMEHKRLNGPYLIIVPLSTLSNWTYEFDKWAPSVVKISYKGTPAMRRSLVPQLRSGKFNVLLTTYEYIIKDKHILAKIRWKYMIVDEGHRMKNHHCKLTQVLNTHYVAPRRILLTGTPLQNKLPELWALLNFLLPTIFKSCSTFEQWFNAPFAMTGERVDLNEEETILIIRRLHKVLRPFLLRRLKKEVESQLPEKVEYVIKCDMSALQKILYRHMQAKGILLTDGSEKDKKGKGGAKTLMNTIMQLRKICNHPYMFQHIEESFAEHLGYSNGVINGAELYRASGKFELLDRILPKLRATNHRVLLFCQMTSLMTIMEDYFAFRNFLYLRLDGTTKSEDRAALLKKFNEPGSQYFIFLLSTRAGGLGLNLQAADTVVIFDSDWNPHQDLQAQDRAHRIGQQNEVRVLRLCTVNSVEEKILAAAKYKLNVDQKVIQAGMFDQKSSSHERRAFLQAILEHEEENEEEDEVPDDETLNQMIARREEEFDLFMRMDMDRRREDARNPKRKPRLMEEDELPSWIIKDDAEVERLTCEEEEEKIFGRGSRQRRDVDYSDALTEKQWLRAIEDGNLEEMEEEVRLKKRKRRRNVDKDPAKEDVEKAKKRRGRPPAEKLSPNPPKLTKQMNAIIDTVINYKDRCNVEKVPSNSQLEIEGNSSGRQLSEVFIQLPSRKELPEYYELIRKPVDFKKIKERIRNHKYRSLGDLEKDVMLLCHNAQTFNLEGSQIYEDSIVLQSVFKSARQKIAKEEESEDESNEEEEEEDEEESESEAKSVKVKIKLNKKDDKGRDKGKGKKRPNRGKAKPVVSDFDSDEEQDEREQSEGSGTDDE
T2 sequence (P51532 whole entry, the tested form may be a part): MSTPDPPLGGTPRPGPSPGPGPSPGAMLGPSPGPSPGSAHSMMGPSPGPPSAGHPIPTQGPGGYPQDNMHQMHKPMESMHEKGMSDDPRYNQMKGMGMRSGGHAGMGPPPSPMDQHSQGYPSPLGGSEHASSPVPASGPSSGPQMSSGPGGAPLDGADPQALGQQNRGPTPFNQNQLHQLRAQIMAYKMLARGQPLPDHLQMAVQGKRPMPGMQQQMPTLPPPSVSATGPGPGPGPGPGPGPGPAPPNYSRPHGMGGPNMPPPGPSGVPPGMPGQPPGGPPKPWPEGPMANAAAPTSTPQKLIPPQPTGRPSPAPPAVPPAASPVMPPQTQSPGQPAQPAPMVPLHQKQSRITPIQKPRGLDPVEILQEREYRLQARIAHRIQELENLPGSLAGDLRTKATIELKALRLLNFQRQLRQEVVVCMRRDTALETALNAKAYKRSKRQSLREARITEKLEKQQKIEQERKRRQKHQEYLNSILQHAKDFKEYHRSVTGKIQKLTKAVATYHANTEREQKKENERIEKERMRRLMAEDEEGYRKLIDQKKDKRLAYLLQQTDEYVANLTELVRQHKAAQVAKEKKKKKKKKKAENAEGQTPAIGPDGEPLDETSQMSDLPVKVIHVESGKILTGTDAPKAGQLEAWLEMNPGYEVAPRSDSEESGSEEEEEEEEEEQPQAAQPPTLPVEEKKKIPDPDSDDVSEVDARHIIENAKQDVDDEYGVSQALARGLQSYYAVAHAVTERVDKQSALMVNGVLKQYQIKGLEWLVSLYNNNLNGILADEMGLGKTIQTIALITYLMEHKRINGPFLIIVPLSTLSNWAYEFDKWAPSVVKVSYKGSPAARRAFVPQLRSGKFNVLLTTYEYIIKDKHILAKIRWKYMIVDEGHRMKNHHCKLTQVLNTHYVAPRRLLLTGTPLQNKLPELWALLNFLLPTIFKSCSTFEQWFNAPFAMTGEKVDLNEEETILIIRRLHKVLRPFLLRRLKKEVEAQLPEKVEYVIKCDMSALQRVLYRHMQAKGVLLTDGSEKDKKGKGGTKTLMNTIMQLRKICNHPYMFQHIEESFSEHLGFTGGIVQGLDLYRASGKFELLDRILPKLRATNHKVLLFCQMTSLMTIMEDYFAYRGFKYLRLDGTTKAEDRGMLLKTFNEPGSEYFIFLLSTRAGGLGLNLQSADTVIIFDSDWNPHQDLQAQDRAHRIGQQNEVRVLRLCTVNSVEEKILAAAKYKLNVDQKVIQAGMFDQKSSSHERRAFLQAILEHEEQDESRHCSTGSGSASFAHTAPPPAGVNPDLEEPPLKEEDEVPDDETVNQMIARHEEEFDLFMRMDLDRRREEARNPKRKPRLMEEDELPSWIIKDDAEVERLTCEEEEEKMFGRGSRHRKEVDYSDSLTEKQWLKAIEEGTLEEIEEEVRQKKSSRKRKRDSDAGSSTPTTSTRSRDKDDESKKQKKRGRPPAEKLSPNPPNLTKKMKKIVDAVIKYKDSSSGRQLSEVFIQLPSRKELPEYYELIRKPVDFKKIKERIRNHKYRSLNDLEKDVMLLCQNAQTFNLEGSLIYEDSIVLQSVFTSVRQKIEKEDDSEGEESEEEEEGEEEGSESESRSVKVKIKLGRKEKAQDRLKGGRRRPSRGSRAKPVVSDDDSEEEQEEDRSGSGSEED

Dmax [1] | SMILES | BRM HiBit Degradation Maximum (%) (HiBit-BRM fusion protein)
< 50% | Nc1nnc(-c2ccccc2O)cc1OCC12CC(CNC(=O)C3CC3CNC(=O)COc3ccc4c(c3)C(=O)N(C3CCC(=O)NC3=O)C4=O)(C1)C2 (centres unmarked) [Compound 13, N-[[3-([[3-amino-6-(2-hydroxyphenyl)pyridazin-4-yl]oxy]methyl)bicyclo[1.1.1]pentan-1-yl]methyl]-2-[(2-[[2-(2,6-dioxopiperidin-3-yl)-1,3-dioxoisoindol-5-yl]oxy]acetamido)methyl]cyclopropane-1-carboxamide] | C (“C” indicates maximum degradation < 50%)
< 50% | Cc1ncsc1-c1ccc(CNC(=O)[C@@H]2C[C@@H](O)CN2C(=O)[C@@H](NC(=O)CCCCCCCC(=O)NC23CC(CCOc4cc(-c5ccccc5O)nnc4N)(C2)C3)C(C)(C)C)cc1 [Compound 44, N1-(3-(2-((3-amino-6-(2-hydroxyphenyl)pyridazin-4-yl)oxy)ethyl)bicyclo[1.1.1]pentan-1-yl)-N9-((S)-1-((2S,4R)-4-hydroxy-2-((4-(4-methylthiazol-5-yl)benzyl)carbamoyl)pyrrolidin-1-yl)-3,3-dimethyl-1-oxobutan-2-yl)nonanediamide] | B (“B” indicates maximum degradation ≥ 50%)
< 50% | Cc1ncsc1-c1ccc(CNC(=O)[C@@H]2C[C@@H](O)CN2C(=O)[C@@H](NC(=O)COCCOCCOCCOCC(=O)NCC23CC(COc4cc(-c5ccccc5O)nnc4N)(C2)C3)C(C)(C)C)cc1 [Compound 36, N1-((3-(((3-amino-6-(2-hydroxyphenyl)pyridazin-4-yl)oxy)methyl)bicyclo[1.1.1]pentan-1-yl)methyl)-N14-((S)-1-((2S,4R)-4-hydroxy-2-((4-(4-methylthiazol-5-yl)benzyl)carbamoyl)pyrrolidin-1-yl)-3,3-dimethyl-1-oxobutan-2-yl)-3,6,9,12-tetraoxatetradecanediamide] | C (“C” indicates maximum degradation < 50%)
> 50% | Nc1nnc(-c2ccccc2O)cc1OCC12CC(C(=O)N3CC(COc4ccc5c(c4)C(=O)N(C4CCC(=O)NC4=O)C5=O)C3)(C1)C2 (centres unmarked) [Compound 86, 5-((1-(3-(((3-amino-6-(2-hydroxyphenyl)pyridazin-4-yl)oxy)methyl)bicyclo[1.1.1]pentane-1-carbonyl)azetidin-3-yl)methoxy)-2-(2,6-dioxopiperidin-3-yl)isoindoline-1,3-dione] | B (“B” indicates maximum degradation ≥ 50%)
> 50% | Cc1ncsc1-c1ccc(CNC(=O)[C@@H]2C[C@@H](O)CN2C(=O)[C@@H](NC(=O)CCCCCCCCCC(=O)NC23CC(CCOc4cc(-c5ccccc5O)nnc4N)(C2)C3)C(C)(C)C)cc1 [Compound 48, N1-(3-(2-((3-amino-6-(2-hydroxyphenyl)pyridazin-4-yl)oxy)ethyl)bicyclo[1.1.1]pentan-1-yl)-N11-((S)-1-((2S,4R)-4-hydroxy-2-((4-(4-methylthiazol-5-yl)benzyl)carbamoyl)pyrrolidin-1-yl)-3,3-dimethyl-1-oxobutan-2-yl)undecanediamide; formic acid] | B (“B” indicates maximum degradation ≥ 50%)
< 50% | Nc1nnc(-c2ccccc2O)cc1OCC12CC(C(=O)NCCCCCCCCNc3cccc4c3C(=O)N(C3CCC(=O)NC3=O)C4=O)(C1)C2 (centres unmarked) [Compound 57, 3-(((3-amino-6-(2-hydroxyphenyl)pyridazin-4-yl)oxy)methyl)-N-(8-((2-(2,6-dioxopiperidin-3-yl)-1,3-dioxoisoindolin-4-yl)amino)octyl)bicyclo[1.1.1]pentane-1-carboxamide] | C (“C” indicates maximum degradation < 50%)
< 50% | Nc1nnc(-c2ccccc2O)cc1OCC12CC(C(=O)NCCCC#Cc3cccc4c3C(=O)N(C3CCC(=O)NC3=O)C4=O)(C1)C2 (centres unmarked) [Compound 88, 3-(((3-amino-6-(2-hydroxyphenyl)pyridazin-4-yl)oxy)methyl)-N-(5-(2-(2,6-dioxopiperidin-3-yl)-1,3-dioxoisoindolin-4-yl)pent-4-yn-1-yl)bicyclo[1.1.1]pentane-1-carboxamide] | C (“C” indicates maximum degradation < 50%)
< 50% | Nc1nnc(-c2ccccc2O)cc1OCC12CC(CNC(=O)C3CC3CNC(=O)COc3cccc4c3C(=O)N(C3CCC(=O)NC3=O)C4=O)(C1)C2 (centres unmarked) [Compound 12, N-[[3-([[3-amino-6-(2-hydroxyphenyl)pyridazin-4-yl]oxy]methyl)bicyclo[1.1.1]pentan-1-yl]methyl]-2-[(2-[[2-(2,6-dioxopiperidin-3-yl)-1,3-dioxoisoindol-4-yl]oxy]acetamido)methyl]cyclopropane-1-carboxamide] | C (“C” indicates maximum degradation < 50%)
< 50% | Nc1nnc(-c2ccccc2O)cc1OCCC12CC(NC(=O)C3CC3CNC(=O)COc3cccc4c3C(=O)N(C3CCC(=O)NC3=O)C4=O)(C1)C2 (centres unmarked) [Compound 28, N-[3-(2-[[3-amino-6-(2-hydroxyphenyl)pyridazin-4-yl]oxy]ethyl)bicyclo[1.1.1]pentan-1-yl]-2-[(2-[[2-(2,6-dioxopiperidin-3-yl)-1,3-dioxoisoindol-4-yl]oxy]acetamido)methyl]cyclopropane-1-carboxamide] | C (“C” indicates maximum degradation < 50%)
< 50% | Nc1nnc(-c2ccccc2O)cc1OCCC12CC(NC(=O)CCN3CCN(c4ccc5c(c4)C(=O)N(C4CCC(=O)NC4=O)C5=O)CC3)(C1)C2 (centres unmarked) [Compound 33, N-(3-(2-((3-amino-6-(2-hydroxyphenyl)pyridazin-4-yl)oxy)ethyl)bicyclo[1.1.1]pentan-1-yl)-3-(4-(2-(2,6-dioxopiperidin-3-yl)-1,3-dioxoisoindolin-5-yl)piperazin-1-yl)propanamide] | C (“C” indicates maximum degradation < 50%)
< 50% | Cc1ncsc1-c1ccc(CNC(=O)[C@@H]2C[C@@H](O)CN2C(=O)[C@@H](NC(=O)COCCOCCOCCNC(=O)C23CC(COc4cc(-c5ccccc5O)nnc4N)(C2)C3)C(C)(C)C)cc1 [Compound 69, (2S,4R)-1-((S)-1-(3-(((3-amino-6-(2-hydroxyphenyl)pyridazin-4-yl)oxy)methyl)bicyclo[1.1.1]pentan-1-yl)-15-(tert-butyl)-1,13-dioxo-5,8,11-trioxa-2,14-diazahexadecan-16-oyl)-4-hydroxy-N-(4-(4-methylthiazol-5-yl)benzyl)pyrrolidine-2-carboxamide] | C (“C” indicates maximum degradation < 50%)
< 50% | Nc1nnc(-c2ccccc2O)cc1OCC12CC(C(=O)NCCOCCOCCOCCNC(=O)COc3ccc4c(c3)C(=O)N(C3CCC(=O)NC3=O)C4=O)(C1)C2 (centres unmarked) [Compound 93, 3-(((3-amino-6-(2-hydroxyphenyl)pyridazin-4-yl)oxy)methyl)-N-(1-((2-(2,6-dioxopiperidin-3-yl)-1,3-dioxoisoindolin-5-yl)oxy)-2-oxo-6,9,12-trioxa-3-azatetradecan-14-yl)bicyclo[1.1.1]pentane-1-carboxamide] | C (“C” indicates maximum degradation < 50%)
< 50% | Nc1nnc(-c2ccccc2O)cc1OCC12CC(CNC(=O)CCOCCOCCOc3ccc4c(c3)C(=O)N(C3CCC(=O)NC3=O)C4=O)(C1)C2 (centres unmarked) [Compound 1, N-[[3-([[3-amino-6-(2-hydroxyphenyl)pyridazin-4-yl]oxy]methyl)bicyclo[1.1.1]pentan-1-yl]methyl]-3-[2-(2-[[2-(2,6-dioxopiperidin-3-yl)-1,3-dioxoisoindol-5-yl]oxy]ethoxy)ethoxy]propanamide] | C (“C” indicates maximum degradation < 50%)
< 50% | Nc1nnc(-c2ccccc2O)cc1OCC12CC(C(=O)N3CCC(CCN4CCN(c5ccc6c(c5)C(=O)N(C5CCC(=O)NC5=O)C6=O)CC4)CC3)(C1)C2 (centres unmarked) [Compound 94, 5-(4-(2-(1-(3-(((3-amino-6-(2-hydroxyphenyl)pyridazin-4-yl)oxy)methyl)bicyclo[1.1.1]pentane-1-carbonyl)piperidin-4-yl)ethyl)piperazin-1-yl)-2-(2,6-dioxopiperidin-3-yl)isoindoline-1,3-dione] | B (“B” indicates maximum degradation ≥ 50%)
< 50% | Nc1nnc(-c2ccccc2O)cc1OCC12CC(C(=O)NC3CCN(CCOc4ccc5c(c4)C(=O)N(C4CCC(=O)NC4=O)C5=O)CC3)(C1)C2 (centres unmarked) [Compound 80, 3-(((3-amino-6-(2-hydroxyphenyl)pyridazin-4-yl)oxy)methyl)-N-(1-(2-((2-(2,6-dioxopiperidin-3-yl)-1,3-dioxoisoindolin-5-yl)oxy)ethyl)piperidin-4-yl)bicyclo[1.1.1]pentane-1-carboxamide] | C (“C” indicates maximum degradation < 50%)
< 50% | Nc1nnc(-c2ccccc2O)cc1OCC12CC(CNC(=O)CCCCOc3cccc4c3C(=O)N(C3CCC(=O)NC3=O)C4=O)(C1)C2 (centres unmarked) [Compound 3, N-[[3-([[3-amino-6-(2-hydroxyphenyl)pyridazin-4-yl]oxy]methyl)bicyclo[1.1.1]pentan-1-yl]methyl]-5-[[2-(2,6-dioxopiperidin-3-yl)-1,3-dioxoisoindol-4-yl]oxy]pentanamide] | C (“C” indicates maximum degradation < 50%)
